Where two headings read alike, the source gives them in different places.
Key:
ITK = ITK (Homo sapiens (Human), UniProt Q08881); assay: ITK kinase assay (radiometric filter binding, 10 μM ATP); format: biochemical
Procedure: (§1) All additions were done on ice, followed by the addition of ATP mix. Wells were uniformly mixed using an Eppendorff plate shaker and incubated at 30° C. for 20 min, and stopped by the addition of 5 μL of 3% phosphoric acid. Volume was increased to 100 μL by adding 0.8% phosphoric acid which was then transferred to PC filter mats (Millipore), pre-equilibrated with 70% ethanol and water. Plates were washed thrice with 100 μL 0.8% phosphoric acid and dried for an hour at 60° C. 100 μL scintillation fluid was added into each well and reading taken in Perkin Elmer TOPCOUNT beta counter.
(§2) The reactions were carried out at 10 μM ATP for ITK, JAK3 and other TEC and Janus family of kinase.

JAK3 = JAK3 (Homo sapiens (Human), UniProt P52333); assay: JAK3 kinase assay (radiometric filter binding, 10 μM ATP); format: biochemical
Procedure: as §1, §2

[1] = 10-dose IC50 mode, 10 μM ATP, read-out: ITK kinase inhibition
[2] = 10-dose IC50 mode, 10 μM ATP, read-out: JAK3 kinase inhibition

ITK, sequence (Q08881 whole entry): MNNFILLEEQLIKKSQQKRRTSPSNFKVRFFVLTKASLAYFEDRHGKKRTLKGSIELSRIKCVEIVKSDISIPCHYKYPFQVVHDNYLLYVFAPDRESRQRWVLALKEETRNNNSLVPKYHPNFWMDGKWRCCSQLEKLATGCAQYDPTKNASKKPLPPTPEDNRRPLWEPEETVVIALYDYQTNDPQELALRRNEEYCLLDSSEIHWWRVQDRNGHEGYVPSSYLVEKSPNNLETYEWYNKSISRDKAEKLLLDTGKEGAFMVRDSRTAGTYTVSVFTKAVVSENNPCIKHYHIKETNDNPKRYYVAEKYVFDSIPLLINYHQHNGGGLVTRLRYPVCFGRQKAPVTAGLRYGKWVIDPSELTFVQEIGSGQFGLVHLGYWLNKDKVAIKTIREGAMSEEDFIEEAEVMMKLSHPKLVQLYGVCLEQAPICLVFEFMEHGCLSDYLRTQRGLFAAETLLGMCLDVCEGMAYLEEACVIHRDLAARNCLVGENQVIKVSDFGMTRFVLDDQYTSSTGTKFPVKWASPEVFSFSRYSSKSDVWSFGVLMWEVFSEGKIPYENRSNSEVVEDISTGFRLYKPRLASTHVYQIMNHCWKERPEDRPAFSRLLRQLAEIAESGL
JAK3, sequence (P52333 whole entry): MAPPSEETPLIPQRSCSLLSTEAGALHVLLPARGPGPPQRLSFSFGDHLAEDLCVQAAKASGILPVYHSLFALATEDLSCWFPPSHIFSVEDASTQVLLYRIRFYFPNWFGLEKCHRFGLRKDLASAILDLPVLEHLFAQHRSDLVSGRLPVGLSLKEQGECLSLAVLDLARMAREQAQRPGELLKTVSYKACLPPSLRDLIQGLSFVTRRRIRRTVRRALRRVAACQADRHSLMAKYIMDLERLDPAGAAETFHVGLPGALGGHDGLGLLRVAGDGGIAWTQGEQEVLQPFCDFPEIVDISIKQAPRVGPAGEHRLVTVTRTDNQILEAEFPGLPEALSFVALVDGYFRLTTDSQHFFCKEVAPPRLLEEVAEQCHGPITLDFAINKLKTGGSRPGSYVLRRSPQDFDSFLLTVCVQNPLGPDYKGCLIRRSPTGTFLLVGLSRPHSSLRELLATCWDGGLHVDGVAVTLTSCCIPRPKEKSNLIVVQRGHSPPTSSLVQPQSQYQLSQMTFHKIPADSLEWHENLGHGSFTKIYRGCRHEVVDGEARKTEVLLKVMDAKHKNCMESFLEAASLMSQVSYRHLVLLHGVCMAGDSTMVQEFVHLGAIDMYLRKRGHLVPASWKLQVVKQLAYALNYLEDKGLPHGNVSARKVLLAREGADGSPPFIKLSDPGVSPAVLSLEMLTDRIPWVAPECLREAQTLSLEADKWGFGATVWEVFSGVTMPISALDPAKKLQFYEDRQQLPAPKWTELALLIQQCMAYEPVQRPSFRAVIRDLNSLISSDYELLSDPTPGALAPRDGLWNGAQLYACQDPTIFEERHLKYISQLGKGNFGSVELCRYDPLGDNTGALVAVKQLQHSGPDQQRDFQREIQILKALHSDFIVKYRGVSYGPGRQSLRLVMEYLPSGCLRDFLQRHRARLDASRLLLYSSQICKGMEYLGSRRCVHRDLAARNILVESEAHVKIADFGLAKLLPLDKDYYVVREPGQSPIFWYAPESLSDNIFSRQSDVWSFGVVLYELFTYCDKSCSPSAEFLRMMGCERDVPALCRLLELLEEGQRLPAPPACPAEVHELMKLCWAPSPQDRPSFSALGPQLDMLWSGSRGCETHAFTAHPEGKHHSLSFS

| SMILES | IC50 (ITK; [1]) | IC50 (JAK3; [2]) | IC50 (ITK; read-out: biochemical IC50 against ITK) | IC50 (JAK3; read-out: biochemical IC50 against JAK3) |
| --- | --- | --- | --- | --- |
| Cc1n[nH]c2ncc(-c3cccc(NC(=O)/C=C/N(C)C)c3)cc12 [Example 48, (E)-3-(dimethylamino)-N-(3-(3-methyl-1H-pyrazolo[3,4-b]pyridin-5-yl)phenyl)acrylamide] | > 100 nM | > 100 nM | – | – |
| Cc1n[nH]c2ncc(-c3ccc(Cl)c(NC(=O)/C=C/N(C)C)c3)cc12 [Example 49, (E)-N-(2-chloro-5-(3-methyl-1H-pyrazolo[3,4-b]pyridin-5-yl)phenyl)-3-(dimethylamino)acrylamide] | > 100 nM | > 100 nM | – | – |
| C=CC(=O)Nc1cc(-c2cnc3[nH]nc(C)c3c2)ccc1Cl [Example 50, N-(2-chloro-5-(3-methyl-1H-pyrazolo[3,4-b]pyridin-5-yl)phenyl)acrylamide] | > 100 nM | > 100 nM | – | – |
| CC/C=C/C(=O)Nc1cc(-c2cnc3[nH]nc(C)c3c2)ccc1Cl [Example 52, (E)-N-(2-chloro-5-(3-methyl-1H-pyrazolo[3,4-b]pyridin-5-yl)phenyl)pent-2-enamide] | > 1000 nM | > 1000 nM | – | – |
| N#CCc1cccc(Nc2cnc3[nH]cc(Cl)c3c2)c1 [Example 53, 2-(3-((3-chloro-1H-pyrrolo[2,3-b]pyridin-5-yl)amino)phenyl)acetonitrile] | > 1000 nM | > 1000 nM | – | – |
| C=CC(=O)Nc1cccc(-c2cnc3[nH]ccc3c2)n1 [Example 57, N-(6-(1H-pyrrolo[2,3-b]pyridin-5-yl)pyridin-2-yl)acrylamide] | > 100 nM | < 100 nM | – | – |
| C=CC(=O)Nc1ccc(-c2cnc3[nH]cc(Cl)c3c2)cc1F [Example 62, -(4-(3-chloro-1H-pyrrolo[2,3-b]pyridin-5-yl)-2-fluorophenyl)acrylamide] | > 1000 nM | > 100 nM | – | – |
| C=CC(=O)N1CCCC1C(=O)Nc1cnc2[nH]ccc2c1 (stereo not shown) [Example 69, 1-acryloyl-N-(1H-pyrrolo[2,3-b]pyridin-5-yl)pyrrolidine-2-carboxamide] | > 100 nM | > 100 nM | – | – |

Other lines, results leading:

| IC50 (ITK; [1]) | IC50 (JAK3; [2]) | IC50 (ITK; read-out: biochemical IC50 against ITK) | IC50 (JAK3; read-out: biochemical IC50 against JAK3) | SMILES |
| --- | --- | --- | --- | --- |
| > 100 nM | < 100 nM | – | – | C=CC(=O)Nc1cccc(-c2cnc3[nH]cc(Cl)c3c2)n1 [Example 58, N-(6-(3-chloro-1H-pyrrolo[2,3-b]pyridin-5-yl)pyridin-2-yl)acrylamide] |
| < 100 nM | < 100 nM | – | – | C=CC(=O)Nc1cc(-c2cnc3[nH]ccc3c2)ccc1F [Example 59, N-(2-fluoro-5-(1H-pyrrolo[2,3-b]pyridin-5-yl)phenyl)acrylamide] |
| > 1000 nM | > 100 nM | – | – | C=CC(=O)Nc1ccc(-c2cnc3[nH]ccc3c2)cc1F [Example 61, N-(2-fluoro-4-(1H-pyrrolo[2,3-b]pyridin-5-yl)phenyl)acrylamide] |
| > 1000 nM | > 100 nM | – | – | C=CC(=O)Nc1cc(-c2cnc3[nH]ccc3c2)cc(F)c1F [Example 63, N-(2,3-difluoro-5-(1H-pyrrolo[2,3-b]pyridin-5-yl)phenyl)acrylamide] |
| < 100 nM | < 100 nM | 100 to 1000 nM | 100 to 1000 nM | C=CC(=O)Nc1cccc(-c2cnc3[nH]cc(-c4cc5ccccc5[nH]4)c3c2)c1 [Example 66, N-(3-(3-(1H-indol-2-yl)-1H-pyrrolo[2,3-b]pyridin-5-yl)phenyl)acrylamide] |
| > 100 nM | > 100 nM | – | – | O=C(Nc1cccc(-c2cnc3[nH]cc(Cl)c3c2)c1)C1CCCN1 (stereo not shown) [Example 67, N-(3-(3-chloro-1H-pyrrolo[2,3-b]pyridin-5-yl)phenyl)pyrrolidine-2-carboxamide] |
| > 100 nM | > 100 nM | – | – | C=CC(=O)N1CCCC1C(=O)Nc1cccc(-c2cnc3[nH]cc(Cl)c3c2)c1 (stereo not shown) [Example 68, 1-acryloyl-N-(3-(3-chloro-1H-pyrrolo[2,3-b]pyridin-5-yl)phenyl)pyrrolidine-2-carboxamide] |
| > 100 nM | < 100 nM | – | – | C#CC(=O)Nc1cccc(-c2cnc3[nH]cc(C)c3c2)c1 [Example 70, N-(3-(3-methyl-1H-pyrrolo[2,3-b]pyridin-5-yl)phenyl)propiolamide] |
